Test results as given in patent US20220395542A1, “Nutritional Compositions for Treating a Clostridium Difficile Infection” (ABBOTT LABORATORIES, priority 2019, published 2022).

Tested on: C. difficile
Test: in vitro gut digestion and fermentation model (SHIME PathoGut) assessing CDI and CDI recurrence
Format: cell-based, Clostridium difficile
Details: control experiments (FIGS. 1 and 2); vancomycin 125 mg/L three times per day for seven days after the 4 weeks of CDI

## CN[C@H](CC(C)C)C(=O)N[C@H]1C(=O)N[C@@H](CC(N)=O)C(=O)N[C@H]2C(=O)N[C@H]3C(=O)N[C@H](C(=O)N[C@H](C(=O)O)c4cc(O)cc(O)c4-c4cc3ccc4O)[C@H](O)c3ccc(c(Cl)c3)Oc3cc2cc(c3O[C@@H]2O[C@H](CO)[C@@H](O)[C@H](O)[C@H]2O[C@H]2C[C@](C)(N)[C@H](O)[C@H](C)O2)Oc2ccc(cc2Cl)[C@H]1O [vancomycin]
  CD cell count: below detectable levels
